From ChEMBL document CHEMBL1145534 (2007)
Values after ≈ are worked out from the molar mass of the structure shown.

Assays:
Format in all cases: functional
[1] = tested on: Corynebacterium pseudodiphtheriticum; assay: Antimicrobial activity against Corynebacterium pseudodiphtheriticum at <= 0.06 ug/ml by broth microdilution method
[2] = tested on: Corynebacterium pseudodiphtheriticum; assay: Antimicrobial activity against Corynebacterium pseudodiphtheriticum at 0.12 ug/ml by broth microdilution method
[3] = tested on: Corynebacterium pseudodiphtheriticum; assay: Antimicrobial activity against Corynebacterium pseudodiphtheriticum at 0.5 ug/ml by broth microdilution method
Corynebacterium striatum = assay: Antimicrobial activity against Corynebacterium striatum at 0.25 ug/ml by broth microdilution method
Enterococcus avium [4] = assay: Antimicrobial activity against Enterococcus avium at <= 0.06 ug/ml by broth microdilution method
Enterococcus avium [5] = assay: Antimicrobial activity against Enterococcus avium at 0.12 ug/ml by broth microdilution method
Enterococcus avium [6] = assay: Antimicrobial activity against Enterococcus avium at 0.25 ug/ml by broth microdilution method
Enterococcus avium [7] = assay: Antimicrobial activity against Enterococcus avium at 0.5 ug/ml by broth microdilution method
Enterococcus avium [8] = assay: Antimicrobial activity against Enterococcus avium at 2 ug/ml by broth microdilution method
[9] = tested on: Enterococcus casseliflavus; assay: Antimicrobial activity against Enterococcus casseliflavus at 0.25 ug/ml by broth microdilution method
[10] = tested on: Enterococcus casseliflavus; assay: Antimicrobial activity against Enterococcus casseliflavus at 2 ug/ml by broth microdilution method
[11] = tested on: Enterococcus casseliflavus; assay: Antimicrobial activity against Enterococcus casseliflavus at 4 ug/ml by broth microdilution method
Enterococcus durans [12] = assay: Antimicrobial activity against Enterococcus durans at 0.12 ug/ml by broth microdilution method
Streptococcus [13] = assay: Antimicrobial activity against beta hemolytic Streptococci group G at <= 0.06 ug/ml by broth microdilution method
[14] = tested on: Streptococcus constellatus; assay: Antimicrobial activity against viridans group Streptococcus constellatus at 0.25 ug/ml by broth microdilution method
Streptococcus equinus [15] = assay: Antimicrobial activity against viridans group Streptococcus bovis at 0.25 ug/ml by broth microdilution method
Bacillus sp. [16] = assay: Antimicrobial activity against Bacillus spp. at 0.12 ug/ml by broth microdilution method; conditions: Bacillus sp. (in: firmicutes)
Bacillus sp. [17] = assay: Antimicrobial activity against Bacillus spp. at 2 ug/ml by broth microdilution method; conditions: Bacillus sp. (in: firmicutes)
Bacillus cereus [18] = assay: Antimicrobial activity against Bacillus cereus at 0.25 ug/ml by broth microdilution method
Bacillus cereus [19] = assay: Antimicrobial activity against Bacillus cereus at 0.5 ug/ml by broth microdilution method
Corynebacterium sp. [20] = assay: Antimicrobial activity against Corynebacterium spp. at 0.12 ug/ml by broth microdilution method
Corynebacterium sp. [21] = assay: Antimicrobial activity against Corynebacterium spp. at 1 ug/ml by broth microdilution method
Streptococcus [22] = assay: Antimicrobial activity against beta hemolytic Streptococcus group C at <= 0.06 ug/ml by broth microdilution method
Streptococcus [23] = assay: Antimicrobial activity against beta hemolytic Streptococci group C at <= 0.06 ug/ml by broth microdilution method
Enterococcus gallinarum = assay: Antimicrobial activity against Enterococcus gallinarum at 1 ug/ml by broth microdilution method
Enterococcus hirae = assay: Antimicrobial activity against Enterococcus hirae at 0.5 ug/ml by broth microdilution method
Enterococcus raffinosus [24] = assay: Antimicrobial activity against Enterococcus raffinosus at <= 0.06 ug/ml by broth microdilution method
Enterococcus raffinosus [25] = assay: Antimicrobial activity against Enterococcus raffinosus at 0.25 ug/ml by broth microdilution method
Listeria monocytogenes = assay: Antimicrobial activity against Listeria monocytogenes at 0.5 ug/ml by broth microdilution method
Micrococcus luteus [26] = assay: Antimicrobial activity against Micrococcus luteus at 0.5 ug/ml by broth microdilution method
Micrococcus luteus [27] = assay: Antimicrobial activity against Micrococcus luteus at 1 ug/ml by broth microdilution method
Rothia mucilaginosa = assay: Antimicrobial activity against Rothia mucilaginosa at 1 ug/ml by broth microdilution method
[28] = tested on: Corynebacterium amycolatum; assay: Antimicrobial activity against Corynebacterium amycolatum by broth microdilution method
Corynebacterium jeikeium = assay: Antimicrobial activity against Corynebacterium jeikeium by broth microdilution method
[29] = tested on: Corynebacterium pseudodiphtheriticum; assay: Antimicrobial activity against Corynebacterium pseudodiphtheriticum by broth microdilution method
[30] = tested on: Enterococcus casseliflavus; assay: Antimicrobial activity against Enterococcus casseliflavus by broth microdilution method
Enterococcus durans [31] = assay: Antimicrobial activity against Enterococcus durans by broth microdilution method
Streptococcus mutans [32] = assay: Antimicrobial activity against viridans group Streptococcus mutans at 2 ug/ml by broth microdilution method
Streptococcus oralis = assay: Antimicrobial activity against viridans group Streptococcus oralis at 2 ug/ml by broth microdilution method
[33] = tested on: Streptococcus parasanguinis; assay: Antimicrobial activity against viridans group Streptococcus parasanguis at 0.12 ug/ml by broth microdilution method
[34] = tested on: Streptococcus parasanguinis; assay: Antimicrobial activity against viridans group Streptococcus parasanguis at 0.5 ug/ml by broth microdilution method
[35] = tested on: Streptococcus parasanguinis; assay: Antimicrobial activity against viridans group Streptococcus parasanguis at 1 ug/ml by broth microdilution method
Streptococcus salivarius = assay: Antimicrobial activity against viridans group Streptococcus salivarius at <= 0.06 ug/ml by broth microdilution method
Streptococcus equinus [36] = assay: Antimicrobial activity against viridans group Streptococcus bovis at 0.5 ug/ml by broth microdilution method
[37] = tested on: Streptococcus constellatus; assay: Antimicrobial activity against viridans group Streptococcus constellatus at <= 0.06 ug/ml by broth microdilution method
Streptococcus gordonii = assay: Antimicrobial activity against viridans group Streptococcus gordonii at <= 0.06 ug/ml by broth microdilution method
[38] = tested on: Streptococcus intermedius; assay: Antimicrobial activity against viridans group Streptococcus intermedius at <= 0.06 ug/ml by broth microdilution method
[39] = tested on: Streptococcus intermedius; assay: Antimicrobial activity against viridans group Streptococcus intermedius at 0.12 ug/ml by broth microdilution method
[40] = tested on: Streptococcus intermedius; assay: Antimicrobial activity against viridans group Streptococcus intermedius at 0.5 ug/ml by broth microdilution method
Streptococcus mutans [41] = assay: Antimicrobial activity against viridans group Streptococcus mutans at <= 0.06 ug/ml by broth microdilution method
[42] = tested on: Streptococcus vestibularis; assay: Antimicrobial activity against viridans group Streptococcus vestibularis at 0.25 ug/ml by broth microdilution method
[43] = tested on: Streptococcus constellatus; assay: Antimicrobial activity against viridans group Streptococcus constellatus by broth microdilution method
[44] = tested on: Streptococcus parasanguinis; assay: Antimicrobial activity against viridans group Streptococcus parasanguis by broth microdilution method
Streptococcus sanguinis = assay: Antimicrobial activity against viridans group Streptococcus sanguinis by broth microdilution method
[45] = tested on: Streptococcus vestibularis; assay: Antimicrobial activity against viridans group Streptococcus vestibularis by broth microdilution method

`CC(=O)NC[C@H]1CN(c2ccc(N3CCOCC3)c(F)c2)C(=O)O1` [LINEZOLID] gave an Inhibition [1] of 0%, an inhibition at 0.12 µg/mL [2] of 0% and an inhibition at 0.5 µg/mL [3] of 90.9%. It also gave an inhibition at 0.25 µg/mL (Corynebacterium striatum) of 88%, an Inhibition (Enterococcus avium [4]) of 0% and an inhibition at 0.12 µg/mL (Enterococcus avium [5]) of 0%. The inhibition at 0.25 µg/mL (Enterococcus avium [6]) was 0%, the inhibition at 0.5 µg/mL (Enterococcus avium [7]) was 4.3% and the inhibition at 2 µg/mL (Enterococcus avium [8]) was 99.1%. It also gave an inhibition at 0.25 µg/mL [9] of 0%, an inhibition at 2 µg/mL [10] of 96.9% and an inhibition at 4 µg/mL [11] of 100%. It also gave an inhibition at 0.12 µg/mL (Enterococcus durans [12]) of 0%, an Inhibition (Streptococcus [13]) of 0.5% and an inhibition at 0.25 µg/mL [14] of 12.4%. It also gave an inhibition at 0.25 µg/mL (Streptococcus equinus [15]) of 2.7%, an inhibition at 0.12 µg/mL (Bacillus sp. [16]) of 0.7% and an inhibition at 2 µg/mL (Bacillus sp. [17]) of 100%. The inhibition at 0.25 µg/mL (Bacillus cereus [18]) was 3.3%, the inhibition at 0.5 µg/mL (Bacillus cereus [19]) was 30% and the inhibition at 0.12 µg/mL (Corynebacterium sp. [20]) was 13.6%. The inhibition at 1 µg/mL (Corynebacterium sp. [21]) was 99.6%, the Inhibition (Streptococcus [22]) was 1.5% and the Inhibition (Streptococcus [23]) was 0%. It also gave an inhibition at 1 µg/mL (Enterococcus gallinarum) of 30.3%, an inhibition at 0.5 µg/mL (Enterococcus hirae) of 0% and an Inhibition (Enterococcus raffinosus [24]) of 0%. For the same compound, the inhibition at 0.25 µg/mL (Enterococcus raffinosus [25]) was 0%, the inhibition at 0.5 µg/mL (Listeria monocytogenes) was 0.7% and the inhibition at 0.5 µg/mL (Micrococcus luteus [26]) was 75.9%. The inhibition at 1 µg/mL (Micrococcus luteus [27]) was 100%, the inhibition at 1 µg/mL (Rothia mucilaginosa) was 94.4% and the MIC50 [28] was 0.25 mg/L (≈ 0.741 µM). For the same compound, the MIC90 [28] was 0.25 mg/L (≈ 0.741 µM), the MIC50 (Corynebacterium jeikeium) was 0.25 mg/L (≈ 0.741 µM) and the MIC90 (Corynebacterium jeikeium) was 0.5 mg/L (≈ 1.48 µM). The MIC50 [29] was 0.5 mg/L (≈ 1.48 µM), the MIC90 [29] was 0.5 mg/L (≈ 1.48 µM) and the MIC50 [30] was 2 mg/L (≈ 5.93 µM). The MIC90 [30] was 2 mg/L (≈ 5.93 µM), the MIC50 (Enterococcus durans [31]) was 2 mg/L (≈ 5.93 µM) and the MIC90 (Enterococcus durans [31]) was 2 mg/L (≈ 5.93 µM). The inhibition at 2 µg/mL (Streptococcus mutans [32]) was 100%, the inhibition at 2 µg/mL (Streptococcus oralis) was 99.3% and the inhibition at 0.12 µg/mL [33] was 0%. The inhibition at 0.5 µg/mL [34] was 57.1%, the inhibition at 1 µg/mL [35] was 100% and the Inhibition (Streptococcus salivarius) was 0%. For the same compound, the inhibition at 0.5 µg/mL (Streptococcus equinus [36]) was 23.8%, the Inhibition [37] was 1.1% and the Inhibition (Streptococcus gordonii) was 0%. It also gave an Inhibition [38] of 0%, an inhibition at 0.12 µg/mL [39] of 0% and an inhibition at 0.5 µg/mL [40] of 24.2%. It also gave an Inhibition (Streptococcus mutans [41]) of 0%, an inhibition at 0.25 µg/mL [42] of 0% and an MIC50 [43] of 1 mg/L (≈ 2.96 µM). The MIC90 [43] was 1 mg/L (≈ 2.96 µM), the MIC50 [44] was 0.5 mg/L (≈ 1.48 µM) and the MIC90 [44] was 1 mg/L (≈ 2.96 µM). For the same compound, the MIC50 (Streptococcus sanguinis) was 1 mg/L (≈ 2.96 µM), the MIC90 (Streptococcus sanguinis) was 1 mg/L (≈ 2.96 µM) and the MIC50 [45] was 1 mg/L (≈ 2.96 µM). The MIC90 [45] was 1 mg/L (≈ 2.96 µM).
